Measurements reported in patent publication US9309283B2, “Prodrugs of peptide epoxy ketone protease inhibitors” (Onyx Therapeutics, Inc., priority 2012, dated 2016).
Values belong to the compound of their own block, whether it stands above or below them.

Legend:
c20s = c20s (Homo sapiens, UniProt P20618+P28074); assay: Purified PI IC50, c20s; type: biochemical
i20s = i20s (Homo sapiens, UniProt P20618+P28062); assay: Purified PI IC50, i20s; type: biochemical
[1] = Conversion to drug in human plasma (%) over time; type: in vitro ADME
[2] = Buffer conversion rates of prodrugs to Compound B; type: physicochemical
[3] = Conversion of prodrugs by Human Liver S9; type: in vitro ADME
[4] = Pharmacokinetic comparison of Compound A and prodrug in mouse; type: in vivo; settings: dose 5 mg/kg

SMILES: COCCOCCOCCOCCC(=O)N/N=C(/[C@H](CC(C)C)NC(=O)[C@H](Cc1ccccc1)NC(=O)[C@H](CC(C)C)NC(=O)[C@H](CCc1ccccc1)NC(=O)CN1CCOCC1)[C@@]1(C)CO1
Purified PI IC50 Slope c20s (c20s; Table G, * = did not converge): inactive

SMILES: CO/N=C(/[C@H](CC(C)C)NC(=O)[C@H](Cc1ccccc1)NC(=O)[C@H](CC(C)C)NC(=O)[C@H](CCc1ccccc1)NC(=O)CN1CCOCC1)[C@@]1(C)CO1
Purified PI IC50 Slope i20s (i20s; Table G, * = did not converge): inactive

SMILES: CC(C)C[C@H](NC(=O)[C@H](CCc1ccccc1)NC(=O)CN1CCOCC1)C(=O)N[C@@H](Cc1ccccc1)C(=O)N[C@@H](CC(C)C)/C(=N/OCC(=O)O)[C@@]1(C)CO1
Purified PI IC50 Slope i20s (i20s; Table G, * = did not converge): inactive
Purified PI IC50 Slope c20s (c20s; Table G, * = did not converge): inactive

SMILES: CC(C)C[C@H](NC(=O)[C@H](CCc1ccccc1)NC(=O)CN1CCOCC1)C(=O)N[C@@H](Cc1ccccc1)C(=O)N[C@@H](CC(C)C)C(=O)[C@](C)(O)COC(=O)c1c(Cl)cccc1Cl
Purified PI IC50 Slope c20s (c20s; Table G, * = did not converge): inactive

SMILES: COC[C@H](NC(=O)c1cnc(C)s1)C(=O)N[C@@H](COC)C(=O)N[C@@H](Cc1ccccc1)/C(=N/OC)[C@@]1(C)CO1
Purified PI IC50 Slope i20s (i20s; Table H): inactive
Purified PI IC50 60 minute point i20s (i20s; Table H): inactive
Purified PI IC50 Slope c20s (c20s; Table H): inactive

SMILES: COC[C@H](NC(=O)c1cnc(C)s1)C(=O)N[C@@H](COC)C(=O)N[C@@H](Cc1ccccc1)C(=O)[C@](C)(O)COC(C)=O
Purified PI IC50 Slope i20s (i20s; Table H): inactive
Purified PI IC50 60 minute point i20s (i20s; Table H): inactive
Purified PI IC50 Slope c20s (c20s; Table H): inactive
Purified PI IC50 60 minute point c20s (c20s; Table H): inactive

SMILES: COC[C@H](NC(=O)c1cnc(C)s1)C(=O)N[C@@H](COC)C(=O)N[C@@H](Cc1ccccc1)C(=O)[C@](C)(O)COC(=O)c1c(Cl)cccc1Cl
Purified PI IC50 Slope i20s (i20s; Table H): inactive
Purified PI IC50 60 minute point i20s (i20s; Table H): inactive
Purified PI IC50 Slope c20s (c20s; Table H): inactive
Purified PI IC50 60 minute point c20s (c20s; Table H): inactive

SMILES: COC[C@H](NC(=O)c1cnc(C)s1)C(=O)N[C@@H](COC)C(=O)N[C@@H](Cc1ccccc1)C(=O)[C@](C)(O)COP(=O)(c1ccccc1)c1ccccc1
Purified PI IC50 Slope i20s (i20s; Table H): inactive
Purified PI IC50 60 minute point i20s (i20s; Table H): inactive
Purified PI IC50 Slope c20s (c20s; Table H): inactive
Purified PI IC50 60 minute point c20s (c20s; Table H): inactive

SMILES: COCCOCCOCCOCCOCCOCCOCCOCCn1cc(CNC(=O)c2cccc(S(=O)(=O)OCC(C)(O)C(=O)[C@H](CC(C)C)NC(=O)[C@H](Cc3ccccc3)NC(=O)[C@H](CC(C)C)NC(=O)[C@H](CCc3ccccc3)NC(=O)CN3CCOCC3)c2)nn1 (stereo partly drawn)
Conversion to drug in Human Plasma ([1]; 2 min): 7%
Conversion to drug in Human Plasma ([1]; 30 min): 63%
Conversion to drug in Human Plasma ([1]; 1 hr): 100%
Conversion to drug in Human Plasma ([1]; 2 hr): 95%
Conversion to drug in Human Plasma ([1]; 4 hr): 80%

SMILES: COCCOCCOCCOCCOCCOCCOCCOCCn1cc(COCCCS(=O)(=O)OCC(C)(O)C(=O)[C@H](CC(C)C)NC(=O)[C@H](Cc2ccccc2)NC(=O)[C@H](CC(C)C)NC(=O)[C@H](CCc2ccccc2)NC(=O)CN2CCOCC2)nn1 (stereo partly drawn)
Conversion to drug in Human Plasma ([1]; 2 min): 2%
Conversion to drug in Human Plasma ([1]; 30 min): 18%
Conversion to drug in Human Plasma ([1]; 1 hr): 58%
Conversion to drug in Human Plasma ([1]; 2 hr): 90%
Conversion to drug in Human Plasma ([1]; 4 hr): 80%

SMILES: CC(C)C[C@H](NC(=O)[C@H](CCc1ccccc1)NC(=O)CN1CCOCC1)C(=O)N[C@@H](Cc1ccccc1)C(=O)N[C@@H](CC(C)C)C(=O)[C@@]1(C)CO1 [Cmpd A, (S)-4-methyl-N—((S)-1-(((S)-4-methyl-1-((R)-2-methyloxiran-2-yl)-1-oxopentan-2-yl)amino)-1-oxo-3-phenylpropan-2-yl)-2-((S)-2-(2-morpholinoacetamido)-4-phenylbutanamido)pentanamide]
[Cmpd A] ([4]; time 1 hr): 0.008 µM
[Cmpd A] ([4]; time 4 hr): BLOQ
[Cmpd A] ([4]; time 6 hr): BLOQ
[Cmpd A] ([4]; time 24 hr): BLOQ

SMILES: COC[C@H](NC(=O)c1cnc(C)s1)C(=O)N[C@@H](COC)C(=O)N[C@@H](Cc1ccccc1)C(=O)[C@](C)(O)COS(=O)(=O)c1ccc(C)cc1 [compound 21]
Buffer pH = 7.4 % Conversion @ 1 hour [2]: 20.3%

SMILES: COC[C@H](NC(=O)c1cnc(C)s1)C(=O)N[C@@H](COC)C(=O)N[C@@H](Cc1ccccc1)C(=O)[C@](C)(O)COS(=O)(=O)C1CCOCC1 [compound 22]
Buffer pH = 7.4 % Conversion @ 1 hour [2]: 9.8%

SMILES: COC[C@H](NC(=O)c1cnc(C)s1)C(=O)N[C@@H](COC)C(=O)N[C@@H](Cc1ccccc1)C(=O)[C@](C)(O)COS(=O)(=O)Cc1ccccc1 [compound 23]
Buffer pH = 7.4 % Conversion @ 1 hour [2]: 9.6%

SMILES: COC[C@H](NC(=O)c1cnc(C)s1)C(=O)N[C@@H](COC)C(=O)N[C@@H](Cc1ccccc1)C(=O)[C@](C)(O)COS(=O)(=O)Cc1ccccc1 [drawing 371]
Purified PI IC50 Slope i20s (i20s; Table H): inactive

The next lines start with the values.

Buffer pH = 7.4 % Conversion @ 1 hour [2]: 24%
SMILES: COC[C@H](NC(=O)c1cnc(C)s1)C(=O)N[C@@H](COC)C(=O)N[C@@H](Cc1ccccc1)C(=O)[C@](C)(O)CI [20-1]

Buffer pH = 7.4 % Conversion @ 1 hour [2]: 0%
SMILES: COC[C@H](NC(=O)c1cnc(C)s1)C(=O)N[C@@H](COC)C(=O)N[C@@H](Cc1ccccc1)C(=O)[C@](C)(O)CCl [20-2]

Buffer pH = 7.4 % Conversion @ 1 hour [2]: 23%
SMILES: COC[C@H](NC(=O)c1cnc(C)s1)C(=O)N[C@@H](COC)C(=O)N[C@@H](Cc1ccccc1)C(=O)[C@](C)(O)CBr [20-3]

Buffer pH = 7.4 % Conversion @ 1 hour [2]: 21.2%
SMILES: COC[C@H](NC(=O)c1cnc(C)s1)C(=O)N[C@@H](COC)C(=O)N[C@@H](Cc1ccccc1)C(=O)[C@](C)(O)COS(=O)(=O)CC(F)(F)F [20-4]

Buffer pH = 7.4 % Conversion @ 1 hour [2]: 13.2%
SMILES: COC[C@H](NC(=O)c1cnc(C)s1)C(=O)N[C@@H](COC)C(=O)N[C@@H](Cc1ccccc1)C(=O)[C@](C)(O)COS(=O)(=O)c1ccc(F)c(F)c1 [20-5]

Buffer pH = 7.4 % Conversion @ 1 hour [2]: 5.7%
SMILES: COC[C@H](NC(=O)c1cnc(C)s1)C(=O)N[C@@H](COC)C(=O)N[C@@H](Cc1ccccc1)C(=O)[C@](C)(O)COS(=O)(=O)CC(F)F [20-6]

Buffer pH = 7.4 % Conversion @ 1 hour [2]: 4.2%
SMILES: CCCCS(=O)(=O)OC[C@@](C)(O)C(=O)[C@H](Cc1ccccc1)NC(=O)[C@H](COC)NC(=O)[C@H](COC)NC(=O)c1cnc(C)s1 [20-7]

Buffer pH = 7.4 % Conversion @ 1 hour [2]: 10.8%
SMILES: CCCCCCCCS(=O)(=O)OC[C@@](C)(O)C(=O)[C@H](Cc1ccccc1)NC(=O)[C@H](COC)NC(=O)[C@H](COC)NC(=O)c1cnc(C)s1 [20-8]

Human Liver S9 % Conversion @ 1 hour [3]: 3%
SMILES: COC[C@H](NC(=O)c1cnc(C)s1)C(=O)N[C@@H](COC)C(=O)N[C@@H](Cc1ccccc1)C(=O)[C@@](C)(CI)OC(=O)CCCCSC(C)=O [20-10]

Human Liver S9 % Conversion @ 1 hour [3]: 11%
SMILES: COC[C@H](NC(=O)c1cnc(C)s1)C(=O)N[C@@H](COC)C(=O)N[C@@H](Cc1ccccc1)C(=O)[C@@](C)(CI)OC(=O)CCCOC(C)=O [20-13]

Human Liver S9 % Conversion @ 1 hour [3]: 30%
SMILES: COC[C@H](NC(=O)c1cnc(C)s1)C(=O)N[C@@H](COC)C(=O)N[C@@H](Cc1ccccc1)C(=O)[C@@](C)(CI)OC(=O)OCc1oc(=O)oc1C [20-15]

Human Liver S9 % Conversion @ 1 hour [3]: 24%
SMILES: CCOC(=O)C(=O)O[C@](C)(CI)C(=O)[C@H](Cc1ccccc1)NC(=O)[C@H](COC)NC(=O)[C@H](COC)NC(=O)c1cnc(C)s1 [20-16]

Human Liver S9 % Conversion @ 1 hour [3]: 1%
SMILES: CCOC(=O)CCC(=O)O[C@](C)(CI)C(=O)[C@H](Cc1ccccc1)NC(=O)[C@H](COC)NC(=O)[C@H](COC)NC(=O)c1cnc(C)s1 [20-17]

Human Liver S9 % Conversion @ 1 hour [3]: 7%
SMILES: COC[C@H](NC(=O)c1cnc(C)s1)C(=O)N[C@@H](COC)C(=O)N[C@@H](Cc1ccccc1)C(=O)[C@@](C)(CI)OC(=O)COc1ccccc1 [20-19]

Human Liver S9 % Conversion @ 1 hour [3]: 28%
SMILES: COC[C@H](NC(=O)c1cnc(C)s1)C(=O)N[C@@H](COC)C(=O)N[C@@H](Cc1ccccc1)C(=O)[C@@](C)(CI)OC(=O)OCc1ccc(OC(C)=O)cc1 [20-22]

Human Liver S9 % Conversion @ 1 hour [3]: 22%
SMILES: COC[C@H](NC(=O)c1cnc(C)s1)C(=O)N[C@@H](COC)C(=O)N[C@@H](Cc1ccccc1)C(=O)[C@@](C)(CI)OC(=O)CCl [20-23]

Human Liver S9 % Conversion @ 1 hour [3]: 29%
SMILES: COC[C@H](NC(=O)c1cnc(C)s1)C(=O)N[C@@H](COC)C(=O)N[C@@H](Cc1ccccc1)C(=O)[C@@](C)(CI)OC=O [20-24]

Human Liver S9 % Conversion @ 1 hour [3]: 14%
SMILES: CCOC(=O)O[C@](C)(CI)C(=O)[C@H](Cc1ccccc1)NC(=O)[C@H](COC)NC(=O)[C@H](COC)NC(=O)c1cnc(C)s1 [20-25]

Human Liver S9 % Conversion @ 1 hour [3]: 32%
SMILES: COC[C@H](NC(=O)c1cnc(C)s1)C(=O)N[C@@H](COC)C(=O)N[C@@H](Cc1ccccc1)C(=O)[C@@](C)(CI)OC(=O)Oc1ccccc1 [20-26]
